The record followed here is article PMC7407272, “Induction of Lysosome Membrane Permeabilization as a Therapeutic Strategy to Target Pancreatic Cancer Stem Cells” (Cancers, 2020).

Holding throughout (assay): KINOMEscan
What all share (type): binding
What all share (conditions): read-out: % Ctrl

For one assay, the target named is T1, TEC (Homo sapiens, UniProt P42680).
T1 construct: purchased DiscoveRx KINOMEscan

The next assay concerns the target T2, LATS2 (Homo sapiens, UniProt Q9NRM7).
T2 construct: purchased DiscoveRx KINOMEscan

Another assay addresses T3, GAK (Homo sapiens, UniProt O14976).
T3 construct: purchased DiscoveRx KINOMEscan

In another assay the target is T4, IGF1R (Homo sapiens, UniProt P08069).
T4 construct: purchased DiscoveRx KINOMEscan

A further assay addresses T5, ULK2 (Homo sapiens, UniProt Q8IYT8).
T5 construct: purchased DiscoveRx KINOMEscan

The target of the next assay is T6, ROCK2 (Homo sapiens, UniProt O75116).
T6 construct: purchased DiscoveRx KINOMEscan

The target of the next assay is T7, ERK5 (Homo sapiens, UniProt Q13164).
T7 construct: purchased DiscoveRx KINOMEscan

For a further assay, the target named is T8, FLT3(K663Q) (Homo sapiens, UniProt P36888, K663Q).
T8 construct: purchased DiscoveRx KINOMEscan

The next assay addresses T9, RIPK5 (Homo sapiens, UniProt Q6XUX3).
T9 construct: purchased DiscoveRx KINOMEscan

A further assay addresses T10, KIT-autoi. (Homo sapiens, UniProt P10721).
T10 construct: purchased DiscoveRx KINOMEscan

For the next assay, the target named is T11, WEE2 (Homo sapiens, UniProt P0C1S8).
T11 construct: purchased DiscoveRx KINOMEscan
T11 sequence (P0C1S8 whole entry): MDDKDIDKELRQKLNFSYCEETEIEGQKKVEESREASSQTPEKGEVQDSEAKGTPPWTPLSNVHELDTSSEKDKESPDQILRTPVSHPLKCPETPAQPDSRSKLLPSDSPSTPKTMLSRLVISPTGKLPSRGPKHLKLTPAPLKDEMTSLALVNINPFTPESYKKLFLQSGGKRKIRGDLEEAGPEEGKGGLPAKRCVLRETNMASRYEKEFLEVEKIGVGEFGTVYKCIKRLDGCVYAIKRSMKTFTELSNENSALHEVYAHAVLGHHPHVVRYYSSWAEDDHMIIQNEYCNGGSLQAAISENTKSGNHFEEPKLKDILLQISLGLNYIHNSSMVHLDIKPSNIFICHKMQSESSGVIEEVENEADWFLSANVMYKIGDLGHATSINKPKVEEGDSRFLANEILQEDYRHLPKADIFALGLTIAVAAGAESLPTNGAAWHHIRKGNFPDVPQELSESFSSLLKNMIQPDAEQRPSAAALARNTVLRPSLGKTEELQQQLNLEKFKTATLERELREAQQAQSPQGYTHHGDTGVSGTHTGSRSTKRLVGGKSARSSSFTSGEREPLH

The next assay addresses T12, ABL1(M351T)-P (Homo sapiens, UniProt P00519, M351T).
T12 construct: purchased DiscoveRx KINOMEscan

The target in the next assay is T13, SRPK2 (Homo sapiens, UniProt P78362).
T13 construct: purchased DiscoveRx KINOMEscan

In a further assay the target is T14, EGFR(L858R) (Homo sapiens, UniProt P00533, L858R).
T14 construct: purchased DiscoveRx KINOMEscan
T14 sequence (P00533 25-1210 L858R): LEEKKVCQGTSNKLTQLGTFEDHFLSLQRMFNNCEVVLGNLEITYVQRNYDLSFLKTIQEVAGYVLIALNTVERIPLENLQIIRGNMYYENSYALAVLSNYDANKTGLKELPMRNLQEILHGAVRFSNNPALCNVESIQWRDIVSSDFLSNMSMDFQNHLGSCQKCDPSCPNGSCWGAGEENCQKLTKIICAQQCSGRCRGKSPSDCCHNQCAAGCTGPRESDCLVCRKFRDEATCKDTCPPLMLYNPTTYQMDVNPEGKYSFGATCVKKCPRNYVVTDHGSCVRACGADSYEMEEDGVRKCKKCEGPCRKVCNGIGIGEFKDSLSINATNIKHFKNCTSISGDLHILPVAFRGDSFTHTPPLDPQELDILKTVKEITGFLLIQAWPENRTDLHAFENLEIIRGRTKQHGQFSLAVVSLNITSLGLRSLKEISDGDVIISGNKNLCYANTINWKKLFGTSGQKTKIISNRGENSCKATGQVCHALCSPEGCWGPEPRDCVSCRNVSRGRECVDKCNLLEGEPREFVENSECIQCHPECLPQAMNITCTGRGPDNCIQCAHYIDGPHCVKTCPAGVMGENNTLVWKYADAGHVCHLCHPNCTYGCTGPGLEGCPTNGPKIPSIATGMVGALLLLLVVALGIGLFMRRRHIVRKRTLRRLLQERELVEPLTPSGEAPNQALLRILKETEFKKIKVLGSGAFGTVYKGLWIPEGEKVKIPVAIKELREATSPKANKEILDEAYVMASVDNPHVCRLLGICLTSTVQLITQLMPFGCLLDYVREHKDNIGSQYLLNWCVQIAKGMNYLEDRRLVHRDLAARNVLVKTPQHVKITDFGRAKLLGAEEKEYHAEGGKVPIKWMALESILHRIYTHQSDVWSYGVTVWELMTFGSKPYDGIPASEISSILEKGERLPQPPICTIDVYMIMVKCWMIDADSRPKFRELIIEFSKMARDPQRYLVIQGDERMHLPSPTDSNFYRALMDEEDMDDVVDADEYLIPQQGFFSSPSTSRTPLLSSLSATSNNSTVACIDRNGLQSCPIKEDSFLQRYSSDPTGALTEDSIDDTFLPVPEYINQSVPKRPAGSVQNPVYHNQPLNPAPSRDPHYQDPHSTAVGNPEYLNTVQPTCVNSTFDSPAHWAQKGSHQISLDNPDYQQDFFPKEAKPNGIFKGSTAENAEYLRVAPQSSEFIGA

The next assay has as its target T15, PRKD1 (Homo sapiens, UniProt Q15139).
T15 construct: purchased DiscoveRx KINOMEscan

The target in another assay is T16, MET(M1250T) (Homo sapiens, UniProt P08581, M1250T).
T16 construct: purchased DiscoveRx KINOMEscan
T16 sequence (P08581 25-1390 M1250T): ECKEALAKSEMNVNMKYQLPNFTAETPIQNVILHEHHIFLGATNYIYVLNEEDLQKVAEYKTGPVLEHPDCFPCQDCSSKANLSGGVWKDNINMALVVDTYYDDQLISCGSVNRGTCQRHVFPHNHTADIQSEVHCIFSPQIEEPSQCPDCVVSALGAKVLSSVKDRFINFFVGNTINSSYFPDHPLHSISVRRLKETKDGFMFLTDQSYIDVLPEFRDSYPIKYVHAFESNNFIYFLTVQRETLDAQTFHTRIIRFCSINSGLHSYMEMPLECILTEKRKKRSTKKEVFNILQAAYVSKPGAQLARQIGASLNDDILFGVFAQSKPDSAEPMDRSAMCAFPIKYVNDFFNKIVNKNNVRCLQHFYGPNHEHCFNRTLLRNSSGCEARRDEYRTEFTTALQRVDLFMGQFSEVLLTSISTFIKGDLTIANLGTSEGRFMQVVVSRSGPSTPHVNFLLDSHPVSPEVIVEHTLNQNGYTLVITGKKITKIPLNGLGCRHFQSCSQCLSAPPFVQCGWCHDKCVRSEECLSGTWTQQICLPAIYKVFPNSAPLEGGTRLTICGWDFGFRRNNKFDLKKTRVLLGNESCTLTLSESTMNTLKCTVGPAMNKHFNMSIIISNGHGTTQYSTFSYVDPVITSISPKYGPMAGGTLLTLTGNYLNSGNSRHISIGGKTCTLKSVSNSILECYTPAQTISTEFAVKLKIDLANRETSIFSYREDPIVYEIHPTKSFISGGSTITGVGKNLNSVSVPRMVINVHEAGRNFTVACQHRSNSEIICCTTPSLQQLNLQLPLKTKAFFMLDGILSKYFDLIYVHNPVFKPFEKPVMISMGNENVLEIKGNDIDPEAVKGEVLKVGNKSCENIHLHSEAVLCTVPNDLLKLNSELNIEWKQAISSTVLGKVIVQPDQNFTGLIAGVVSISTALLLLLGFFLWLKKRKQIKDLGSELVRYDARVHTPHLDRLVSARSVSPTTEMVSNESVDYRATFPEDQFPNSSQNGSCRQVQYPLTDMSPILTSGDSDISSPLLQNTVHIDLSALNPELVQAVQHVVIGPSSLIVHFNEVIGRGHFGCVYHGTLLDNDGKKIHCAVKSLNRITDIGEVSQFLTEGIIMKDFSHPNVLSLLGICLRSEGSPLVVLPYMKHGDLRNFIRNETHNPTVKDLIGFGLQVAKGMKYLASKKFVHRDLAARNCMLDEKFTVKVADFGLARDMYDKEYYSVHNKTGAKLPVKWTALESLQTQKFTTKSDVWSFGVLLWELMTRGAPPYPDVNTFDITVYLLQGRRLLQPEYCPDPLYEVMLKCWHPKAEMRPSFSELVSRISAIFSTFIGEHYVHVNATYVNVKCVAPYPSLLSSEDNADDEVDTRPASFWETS

The target of another assay is T17, CDC2L1 (Homo sapiens, UniProt P21127).
T17 construct: purchased DiscoveRx KINOMEscan

T9 sequence (Q6XUX3 whole entry): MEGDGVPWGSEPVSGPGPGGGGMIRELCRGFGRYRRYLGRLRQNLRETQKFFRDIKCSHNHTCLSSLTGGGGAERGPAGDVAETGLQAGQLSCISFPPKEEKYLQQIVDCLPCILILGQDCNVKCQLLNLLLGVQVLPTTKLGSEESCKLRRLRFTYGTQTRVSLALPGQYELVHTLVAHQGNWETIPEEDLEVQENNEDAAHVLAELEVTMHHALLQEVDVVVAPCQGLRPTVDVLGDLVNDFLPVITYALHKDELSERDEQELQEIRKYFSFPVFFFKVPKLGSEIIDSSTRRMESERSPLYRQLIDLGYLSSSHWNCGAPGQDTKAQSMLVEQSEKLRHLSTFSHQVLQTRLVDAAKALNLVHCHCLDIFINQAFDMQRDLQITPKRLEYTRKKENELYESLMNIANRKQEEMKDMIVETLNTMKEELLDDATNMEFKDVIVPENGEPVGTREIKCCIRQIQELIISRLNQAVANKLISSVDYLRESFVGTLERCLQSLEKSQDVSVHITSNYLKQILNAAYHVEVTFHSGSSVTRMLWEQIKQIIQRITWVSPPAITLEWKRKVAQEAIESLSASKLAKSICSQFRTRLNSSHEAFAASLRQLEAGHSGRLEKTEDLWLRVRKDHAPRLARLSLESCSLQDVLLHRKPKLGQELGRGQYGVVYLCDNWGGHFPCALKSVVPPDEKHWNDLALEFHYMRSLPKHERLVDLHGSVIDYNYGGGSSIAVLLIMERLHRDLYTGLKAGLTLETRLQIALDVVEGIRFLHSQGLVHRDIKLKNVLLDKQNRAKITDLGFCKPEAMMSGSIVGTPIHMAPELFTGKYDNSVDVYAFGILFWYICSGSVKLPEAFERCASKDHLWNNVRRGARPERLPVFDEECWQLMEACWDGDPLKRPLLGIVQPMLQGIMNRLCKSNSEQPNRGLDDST
T15 sequence (Q15139 whole entry): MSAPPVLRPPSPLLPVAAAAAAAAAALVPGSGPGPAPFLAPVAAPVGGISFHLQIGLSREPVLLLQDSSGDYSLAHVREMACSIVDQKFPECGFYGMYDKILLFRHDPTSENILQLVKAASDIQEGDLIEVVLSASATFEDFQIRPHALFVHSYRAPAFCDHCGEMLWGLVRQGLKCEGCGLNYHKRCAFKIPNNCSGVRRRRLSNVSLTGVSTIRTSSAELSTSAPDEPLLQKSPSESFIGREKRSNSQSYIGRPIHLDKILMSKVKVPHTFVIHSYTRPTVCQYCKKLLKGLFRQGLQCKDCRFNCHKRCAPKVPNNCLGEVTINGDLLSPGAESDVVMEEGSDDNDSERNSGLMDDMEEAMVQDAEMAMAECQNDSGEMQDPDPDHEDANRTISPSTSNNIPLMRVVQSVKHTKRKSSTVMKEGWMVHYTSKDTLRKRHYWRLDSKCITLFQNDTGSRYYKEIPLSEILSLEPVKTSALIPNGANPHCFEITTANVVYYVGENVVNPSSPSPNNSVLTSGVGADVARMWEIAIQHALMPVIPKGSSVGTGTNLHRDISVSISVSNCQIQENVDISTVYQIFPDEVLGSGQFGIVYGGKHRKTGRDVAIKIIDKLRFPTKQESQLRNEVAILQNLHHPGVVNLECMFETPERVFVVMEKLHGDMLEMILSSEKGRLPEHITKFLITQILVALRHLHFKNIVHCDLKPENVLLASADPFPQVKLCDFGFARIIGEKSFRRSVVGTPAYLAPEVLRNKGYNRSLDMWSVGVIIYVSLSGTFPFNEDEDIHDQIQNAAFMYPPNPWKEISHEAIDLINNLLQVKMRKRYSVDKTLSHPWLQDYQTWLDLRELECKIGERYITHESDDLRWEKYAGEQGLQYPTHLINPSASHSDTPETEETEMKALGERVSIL

`CN1CCC(CNc2ccc3ncc(C(=O)Nc4cccc(OC(F)(F)F)c4)n3n2)CC1` [Cpd 2]: the remaining binding at 1 µM is 96% at TEC; 99% on LATS2; 89% at GAK; 100% on IGF1R; 100% at ULK2; 94% on ROCK2. The remaining binding at 1 µM on ERK5 came out at 100%; at FLT3(K663Q) it was 92%; on RIPK5 it was 84%; on KIT-autoi., 100%; at WEE2, 92%; at ABL1(M351T)-P, 100%. The remaining binding at 1 µM is 94% on SRPK2; 94% on EGFR(L858R); 98% on PRKD1; 100% on MET(M1250T); 100% on CDC2L1.
